Reference: patent publication US8334261B2, “Osteopenia animal model” (Oriental Yeast Co., Ltd., priority 2006, dated 2012)

Experiments:
[1] = system: GST-RANKL-administered 7-week-old female C57BL/6N mice; assay: Evaluation of RANKL-signal-inhibiting compound (LFM-A13) in osteopenia mouse models; type: in vivo
Procedure: GST or GST-RANKL (20 μg) was administered 3 times to 7-week-old female C57BL/6N mice every 24 hours. LFM-A13 (20 mg/kg body weigh) or physiological saline was administered thereto 1 hour before GST-RANKL administration. Measurement of the serum Ca concentration and bone morphology measurement was carried out 1.5 hours after the 3rd GST-RANKL administration. In addition, 3D image analysis was carried out with micro CT.

[2] = system: GST-RANKL-administered 7-week-old female C57BL/6 mice; assay: Comparison of a plurality of bisphosphonates in GST-RANKL mice; type: in vivo, mouse; conditions: for dose at which the effects were exhibited: s.c. from the day before GST-RANKL
Procedure: GST-RANKL was intraperitoneally administered 3 times at 1 mg/kg every 24 hours. The femur, tibia, and serum were collected from each mouse 1.5 hours after the 3rd GST-RANKL administration. Measurement of TRAP-5b, calcium (Ca), and alkaline phosphatase (ALP) in the serum was carried out. Each femur was subjected to bone density measurement with pQCT and image analysis with micro CT.

[3] = system: GST-RANKL-administered, ovariectomized 7-week-old female C57BL/6N mice; assay: Drug evaluation with a selective estrogen receptor modulator (raloxifene) in GST-RANKL/OVX mice; type: in vivo, mouse
Source text: In addition, PBS (i.p.) and ultrapure water (p.o.) were used as control substances for comparison with GST-RANKL and raloxifene, respectively, upon administration.
The serum collected from each mouse was subjected to measurement of serum bone resorption markers (Ca and TRAP-5b) and an osteogenesis marker (ALP). Each femur was subjected to measurement of the bone density, the bone mineral content, and the cortical bone thickness with pQCT at points 0.6, 0.8, 1.0 mm from the distal growth plate on the proximal side. In addition, image analysis was carried out with micro CT.

[4] = system: GST-RANKL-administered 7-week-old female C57BL/6 mice; assay: Drug evaluation with bisphosphonate (risedronate) in GST-RANKL mice; type: in vivo, mouse
Procedure: Risedronate was separately administered via a subcutaneous route to groups of 7-week-old female C57BL/6 mice at doses of 3, 10, and 30 μg/kg every 24 hours from the day before GST-RANKL administration to the end of the experimentation. The femur and serum were collected from each mouse 1.5 hours after the 3rd administration of GST-RANKL. Measurement of TRAP-5b, calcium (Ca), and alkaline phosphatase (ALP) was carried out. Each femur was subjected to bone density measurement and image analysis with the use of pQCT.

[5] = system: GST-RANKL-administered 7-week-old female C57BL/6N mice; assay: Evaluation of an osteoporosis therapeutic agent (risedronate) with GST-RANKL-administered mice; type: in vivo, mouse
Procedure: GST-RANKL (426 nmol) was intraperitoneally administered 3 times to groups of 7-week-old female C57BL/6N mice (5 to 6 individuals each) every 24 hours. An osteoporosis therapeutic agent (risedronate) was subcutaneously administered at 0.01 mg/kg every 24 hours from 3 days before GST-RANKL administration. Administration of the agent was continued to the end of the experimentation every 24 hours. The serum, femur, and tibia were collected from each mouse 1.5 hours after the 3rd administration of GST-RANKL. Bone resorption parameters (calcium, CTx, and TRAP-5b) and osteogenesis parameters (osteocalcin and ALP) in the serum were measured. The femur bone density was determined with the use of pQCT and micro CT. Measurement values were compared with those for a control group by the Dunnett method for testing.

[6] = system: 7-week-old female C57BL/6N mice; assay: Production of osteopenia model mice with soluble RANKL; type: in vivo, mouse
Procedure: Soluble RANKL (produced by Peprotech) was intraperitoneally administered 3 times to groups of 7-week-old female C57BL/6N mice (10 individuals each) at doses of 57 and 426 nmol every 24 hours. The serum and femur were collected from each mouse 1.5 hours after the 3rd administration. Bone resorption markers and osteogenesis markers in the serum were measured. The bone density was measured with the use of pQCT at points 0.6, 0.8, and 1.0 mm from the distal growth plate on the proximal side of the femur.

[7] = raloxifene 1 or 10 mg/kg p.o. 14 days
[8] = combination of GST-RANKL and risedronate 0.01 mg/kg

## C/C(O)=C(\C#N)C(=O)Nc1cc(Br)ccc1Br [LFM-A13]
[1]; LFM-A13 20 mg/kg 1 hour before GST-RANKL 20 μg
  bone mass decrease caused by GST-RANKL (micro CT): suppressed
[1]; LFM-A13 20 mg/kg, p<0.01
  decrease in the trabecular number (Tb.N) resulting from GST-RANKL: significantly suppressed
  decrease in unit bone mass (BV/TV) caused by GST-RANKL: significantly suppressed
  increase in the eroded surface area (ES/BS) resulting from GST-RANKL: significantly suppressed
  increase in the osteoclast number (N.Oc/B.Pm) resulting from GST-RANKL: significantly suppressed
[1]; LFM-A13 20 mg/kg, p<0.05
  decrease in the trabecular width (Tb.Th) resulting from GST-RANKL: significantly suppressed
  increase in the serum Ca concentration resulting from GST-RANKL: significantly suppressed

## NCCCC(O)(P(=O)(O)O)P(=O)(O)O [alendronate]
[2]; 300 μg/kg s.c., p<0.05
  serum Ca concentration vs RANKL administration: significantly decreased
[2]; 300 μg/kg, p<0.01
  increase in the TRAP-5b concentration: significantly suppressed
[2]
  dose at which the effects were exhibited: 0.3 mg/kg

## CC(O)(P(=O)(O)O)P(=O)(O)O [etidronate]
[2]
  dose at which the effects were exhibited: 30 mg/kg

## O=C(c1ccc(OCCN2CCCCC2)cc1)c1c(-c2ccc(O)cc2)sc2cc(O)ccc12 [raloxifene]
[3]; among the all groups
  cancellous bone density (pQCT): no significant differences
[3]; raloxifene 1 mg/kg, 0.8 mm
  cortical bone mineral content increase in GST-RANKL+OVX group: 93%
  cortical bone thickness increase in GST-RANKL+OVX group: 101%
[3]; raloxifene 1 mg/kg, 1.0 mm
  cortical bone mineral content increase in GST-RANKL+OVX group: 136%
  cortical bone thickness increase in GST-RANKL+OVX group: 137%
  total bone density increase in GST-RANKL+OVX group: 10%
[3]; raloxifene 1 mg/kg, p<0.05
  serum ALP concentration: significantly decreased
[3]; raloxifene 10 mg/kg, 0.6 mm
  cortical bone mineral content increase in GST-RANKL+OVX group: 87%
  cortical bone thickness increase in GST-RANKL+OVX group: 92%
  total bone density increase in GST-RANKL+OVX group: 10%
[3]; raloxifene 10 mg/kg, 0.8 mm
  cortical bone mineral content increase in GST-RANKL+OVX group: 118%
  cortical bone thickness increase in GST-RANKL+OVX group: 123%
  total bone density increase in GST-RANKL+OVX group: 11%
[3]; raloxifene 10 mg/kg, 1.0 mm
  cortical bone mineral content increase in GST-RANKL+OVX group: 137%
  cortical bone thickness increase in GST-RANKL+OVX group: 133%
  total bone density increase in GST-RANKL+OVX group: 11%
[3]; raloxifene 10 mg/kg, p<0.01
  serum ALP concentration: significantly decreased
[3]; [7]
  serum Ca concentration: no significant changes
  serum TRAP-5b concentration: no significant changes

## O=P(O)(O)C(O)(Cc1cccnc1)P(=O)(O)O [risedronate]
[2]; 1 μg/kg s.c., p<0.01
  serum Ca concentration vs RANKL administration: significantly decreased
[2]; 1 μg/kg, p<0.05
  increase in the TRAP-5b concentration: significantly suppressed
[2]; 10 μg/kg, p<0.01
  increase in the TRAP-5b concentration: significantly suppressed
[2]; 100 μg/kg s.c., p<0.01
  serum Ca concentration vs RANKL administration: significantly decreased
[2]; 100 μg/kg, 0.6-mm point
  bone density decrease suppressed to: 1%
[2]; 100 μg/kg, p<0.01
  increase in the TRAP-5b concentration: significantly suppressed
[2]
  dose at which the effects were exhibited: 0.1 mg/kg
[4]; risedronate 3 μg/kg s.c. every 24 hours
  serum TRAP-5b decrease vs RANKL alone: approximately 30%
[4]; risedronate 3 μg/kg, 0.6 mm
  bone density decrease suppressed to: 12%
[4]; risedronate 3 μg/kg, 0.8 mm
  bone density decrease suppressed to: 18%
[4]; risedronate 3 μg/kg, 1.0 mm
  bone density decrease suppressed to: 24%
[4]; risedronate 10 μg/kg s.c.
  serum TRAP-5b decrease vs RANKL alone: ~50%
[4]; risedronate 10 μg/kg, 0.6 mm
  bone density decrease suppressed to: 13%
[4]; risedronate 10 μg/kg, 0.8 mm
  bone density decrease suppressed to: 28%
[4]; risedronate 10 μg/kg, 1.0 mm
  bone density decrease suppressed to: 30%
[4]; risedronate 30 μg/kg
  serum ALP concentration vs RANKL alone: significantly decreased
[4]; risedronate 30 μg/kg s.c.
  serum TRAP-5b decrease vs RANKL alone: ~70%
[4]; risedronate 30 μg/kg, 0.6 mm
  bone density decrease suppressed to: 10%
[4]; risedronate 30 μg/kg, 0.8 mm
  bone density decrease suppressed to: 18%
[4]; risedronate 30 μg/kg, 1.0 mm
  bone density decrease suppressed to: 20%
[5]; combination of GST-RANKL 426 nmol and risedronate 0.01 mg/kg s.c.
  serum CTx concentration decrease vs control group: approximately 30%
[5]; combination of GST-RANKL 426 nmol and risedronate 0.01 mg/kg s.c. every 24 hours
  serum TRAP-5b concentration decrease vs control group: approximately 30%
[5]; [8]
  femur bone density vs control: comparable to that for the control group
  serum alkaline phosphatase concentration vs control: did not change
  serum osteocalcin concentration vs control: did not change

B1: Soluble RANKL: Soluble RANKL (produced by Peprotech) (protein, UniProt O14788 69-317, looked up)
extracellular domain: YFRAQMDPNRISEDGTHCIYRILRLHENADFQDTTLESQDTKLIPDSCRRIKQAFQGAVQKELQHIVGSQHIRAEKAMVDGSWLDLAKRSKLEAQPFAHLTINATDIPSGSHKVSLSSWYHDRGWAKISNMTFSNGKLIVNQDGFYYLYANICFRHHETSGDLATEYLQLMVYVTKTSIKIPSSHTLMKGGSTKYWSGNSEFHFYSINVGGFFKLRSGEEISIEVSNPSLLDPDQDATYFGAFKVRDID
modifications: extracellular domain
[6]; 426 nmol
  femur bone density decrease: approximately 20%
  serum CTx concentration, fold as high: ~1.5 fold
  serum alkaline phosphatase concentration: did not vary
  serum osteocalcin concentration: did not vary
[6]; 426 nmol high dose i.p. 3 times
  serum calcium concentration, fold as high: approximately 1.4 fold
[6]; 426 nmol, no significant difference
  serum TRAP-5b concentration, fold as high: approximately 1.25 fold
